Source: article PMC8429728, “TNK1 is a ubiquitin-binding and 14-3-3-regulated kinase that can be targeted to block tumor growth” (Nature Communications, 2021)
Like-named read-outs stand apart in the source and are kept apart here.

Legend:
Test in all cases: biochemical
Parameters in all cases: Reaction Biology 371-kinase panel at Km ATP, per cent enzyme activity relative to DMSO, single dose in duplicate
PASK = PASK (Homo sapiens, UniProt Q96RG2); details: duplicate measurements, Km ATP; read-out: % Enzyme Activity (relative to DMSO controls) / TP-0005801 (0.3µM) / Data 1
Method in brief: (§1)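 Activity of each kinase, normalised to DMSO-treated controls, served as the read-out. The inhibitor was tested at 300 nM against 371 kinases in vitro. Curves fitted by variable-slope sigmoidal dose-response, constrained to a bottom of 0, gave IC50.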

FGFR2 = FGFR2 (Homo sapiens, UniProt P21802); details: duplicate measurements, Km ATP
Method in brief: as §1

TLK2 = TLK2 (Homo sapiens, UniProt Q86UE8); details: duplicate measurements, Km ATP
Method in brief: as §1

TNIK = TNIK (Homo sapiens, UniProt Q9UKE5); details: duplicate measurements, Km ATP
Method in brief: as §1

IKKb/IKBKB = IKKb/IKBKB (Homo sapiens, UniProt O14920); details: duplicate measurements, Km ATP
Method in brief: as §1

PKCmu/PRKD1 = PKCmu/PRKD1 (Homo sapiens, UniProt Q15139); details: duplicate measurements, Km ATP
Method in brief: as §1

YES/YES1 = YES/YES1 (Homo sapiens, UniProt P07947); details: duplicate measurements, Km ATP
Method in brief: as §1

TAOK2/TAO1 = TAOK2/TAO1 (Homo sapiens, UniProt Q9UL54); details: duplicate measurements, Km ATP
Method in brief: as §1

SIK3 = SIK3 (Homo sapiens, UniProt Q9Y2K2); details: duplicate measurements, Km ATP
Method in brief: as §1

RIPK5 = molecular target: T1, RIPK5 (Homo sapiens, UniProt Q6XUX3); details: duplicate measurements, Km ATP
T1 construct: gene DSTYK
Method in brief: as §1

ZAP70 = ZAP70 (Homo sapiens, UniProt P43403); details: duplicate measurements, Km ATP
Method in brief: as §1

MEK5 = molecular target: T2, MEK5 (Homo sapiens, UniProt Q13163); details: duplicate measurements, Km ATP
T2 construct: gene MAP2K5
Method in brief: as §1

MEK2 = molecular target: T3, MEK2 (Homo sapiens, UniProt P36507); details: duplicate measurements, Km ATP
T3 construct: gene MAP2K2
Method in brief: as §1

NEK3 = NEK3 (Homo sapiens, UniProt P51956); details: duplicate measurements, Km ATP
Method in brief: as §1

PKCb2 = molecular target: T4, PKCb2 (Homo sapiens, UniProt P05771); details: duplicate measurements, Km ATP
T4 construct: gene PRKCB; isoform beta II
Method in brief: as §1

PKG1a = molecular target: T5, PKG1a (Homo sapiens, UniProt Q13976); details: duplicate measurements, Km ATP
T5 construct: gene PRKG1; isoform alpha
Method in brief: as §1

MSK2/RPS6KA4 = MSK2/RPS6KA4 (Homo sapiens, UniProt O75676); details: duplicate measurements, Km ATP
Method in brief: as §1

CHK1 = molecular target: T6, CHK1 (Homo sapiens, UniProt O14757); details: duplicate measurements, Km ATP
T6 construct: gene CHEK1
Method in brief: as §1

p70S6K/RPS6KB1 = p70S6K/RPS6KB1 (Homo sapiens, UniProt P23443); details: duplicate measurements, Km ATP
Method in brief: as §1

YSK4/MAP3K19 = YSK4/MAP3K19 (Homo sapiens, UniProt Q56UN5); details: duplicate measurements, Km ATP
Method in brief: as §1

[1] = read-out: % Enzyme Activity (relative to DMSO controls) / TP-0005801 (0.3µM) / Data 1
[2] = read-out: % Enzyme Activity (relative to DMSO controls) / TP-0005801 (0.3µM) / Data 2

T2 sequence (Q13163 whole entry): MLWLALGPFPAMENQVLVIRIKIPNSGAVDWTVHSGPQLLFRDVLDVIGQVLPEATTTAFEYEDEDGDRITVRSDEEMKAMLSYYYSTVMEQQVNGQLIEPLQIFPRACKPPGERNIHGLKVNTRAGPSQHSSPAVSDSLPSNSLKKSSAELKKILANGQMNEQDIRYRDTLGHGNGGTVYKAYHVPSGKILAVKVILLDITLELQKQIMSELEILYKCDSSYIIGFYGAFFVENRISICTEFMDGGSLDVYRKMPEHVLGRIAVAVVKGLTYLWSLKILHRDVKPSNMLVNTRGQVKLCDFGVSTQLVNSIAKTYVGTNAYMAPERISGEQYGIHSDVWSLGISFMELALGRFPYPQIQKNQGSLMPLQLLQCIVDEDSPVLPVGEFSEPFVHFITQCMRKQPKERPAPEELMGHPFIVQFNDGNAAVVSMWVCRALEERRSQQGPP
Chain of p70S6K/RPS6KB1 (P23443 whole entry): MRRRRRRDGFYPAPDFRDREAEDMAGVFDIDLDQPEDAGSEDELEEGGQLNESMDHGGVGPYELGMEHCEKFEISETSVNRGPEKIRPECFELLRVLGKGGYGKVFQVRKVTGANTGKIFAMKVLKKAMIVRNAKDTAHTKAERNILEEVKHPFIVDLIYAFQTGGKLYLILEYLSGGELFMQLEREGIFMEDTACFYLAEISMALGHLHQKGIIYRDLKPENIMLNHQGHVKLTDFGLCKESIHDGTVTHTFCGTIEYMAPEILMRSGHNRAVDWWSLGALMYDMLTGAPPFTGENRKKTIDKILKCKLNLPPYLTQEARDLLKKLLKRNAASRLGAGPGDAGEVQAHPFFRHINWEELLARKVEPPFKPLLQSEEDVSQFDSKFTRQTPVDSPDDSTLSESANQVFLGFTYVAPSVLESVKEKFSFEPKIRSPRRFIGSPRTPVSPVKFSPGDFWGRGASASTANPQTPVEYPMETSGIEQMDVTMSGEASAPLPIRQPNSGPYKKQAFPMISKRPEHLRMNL
Chain of TAOK2/TAO1 (Q9UL54 whole entry): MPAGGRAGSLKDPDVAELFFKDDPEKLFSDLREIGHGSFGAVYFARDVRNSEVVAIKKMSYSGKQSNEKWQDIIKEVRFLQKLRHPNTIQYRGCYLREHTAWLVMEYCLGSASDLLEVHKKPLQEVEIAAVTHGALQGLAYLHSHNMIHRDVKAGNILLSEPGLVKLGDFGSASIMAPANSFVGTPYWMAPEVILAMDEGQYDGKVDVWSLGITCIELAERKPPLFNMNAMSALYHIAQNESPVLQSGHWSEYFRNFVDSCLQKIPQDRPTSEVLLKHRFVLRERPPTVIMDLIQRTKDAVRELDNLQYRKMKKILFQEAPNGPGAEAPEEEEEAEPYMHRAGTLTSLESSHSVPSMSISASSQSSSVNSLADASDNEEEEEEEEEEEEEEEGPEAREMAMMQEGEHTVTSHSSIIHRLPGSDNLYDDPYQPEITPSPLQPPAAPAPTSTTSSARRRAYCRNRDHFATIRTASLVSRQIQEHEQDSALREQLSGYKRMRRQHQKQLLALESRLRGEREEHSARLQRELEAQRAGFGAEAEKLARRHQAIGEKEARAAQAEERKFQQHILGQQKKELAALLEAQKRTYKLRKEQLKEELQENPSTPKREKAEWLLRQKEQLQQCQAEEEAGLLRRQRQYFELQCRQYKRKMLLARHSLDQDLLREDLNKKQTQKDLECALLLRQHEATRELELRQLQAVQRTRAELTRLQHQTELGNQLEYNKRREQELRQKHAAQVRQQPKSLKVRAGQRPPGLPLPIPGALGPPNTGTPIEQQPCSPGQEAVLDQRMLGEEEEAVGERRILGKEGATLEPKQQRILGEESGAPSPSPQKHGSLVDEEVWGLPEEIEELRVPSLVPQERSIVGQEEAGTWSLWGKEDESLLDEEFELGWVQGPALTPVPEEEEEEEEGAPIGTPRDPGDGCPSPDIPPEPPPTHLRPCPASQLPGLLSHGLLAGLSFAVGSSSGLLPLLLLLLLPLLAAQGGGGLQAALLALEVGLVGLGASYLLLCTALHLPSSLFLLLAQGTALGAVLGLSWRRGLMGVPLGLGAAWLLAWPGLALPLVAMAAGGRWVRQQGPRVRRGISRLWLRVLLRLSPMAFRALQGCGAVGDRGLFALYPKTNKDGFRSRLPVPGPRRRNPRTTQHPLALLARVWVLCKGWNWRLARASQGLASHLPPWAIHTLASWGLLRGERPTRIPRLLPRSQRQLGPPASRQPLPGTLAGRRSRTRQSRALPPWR
Chain of YES/YES1 (P07947 whole entry): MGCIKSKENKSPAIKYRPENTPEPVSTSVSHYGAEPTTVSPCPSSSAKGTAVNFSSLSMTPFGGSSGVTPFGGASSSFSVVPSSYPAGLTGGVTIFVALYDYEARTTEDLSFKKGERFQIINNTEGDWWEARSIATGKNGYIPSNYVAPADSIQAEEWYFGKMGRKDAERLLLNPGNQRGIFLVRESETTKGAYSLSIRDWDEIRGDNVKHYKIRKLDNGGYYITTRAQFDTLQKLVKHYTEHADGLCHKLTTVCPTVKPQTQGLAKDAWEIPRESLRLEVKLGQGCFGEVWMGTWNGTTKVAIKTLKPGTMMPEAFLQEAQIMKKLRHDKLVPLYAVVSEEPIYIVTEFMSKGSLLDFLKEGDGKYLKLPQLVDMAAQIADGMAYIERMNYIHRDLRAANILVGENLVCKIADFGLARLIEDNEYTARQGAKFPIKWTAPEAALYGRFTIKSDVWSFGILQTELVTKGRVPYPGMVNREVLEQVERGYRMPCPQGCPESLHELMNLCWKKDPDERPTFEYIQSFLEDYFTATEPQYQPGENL
Chain of FGFR2 (P21802 whole entry): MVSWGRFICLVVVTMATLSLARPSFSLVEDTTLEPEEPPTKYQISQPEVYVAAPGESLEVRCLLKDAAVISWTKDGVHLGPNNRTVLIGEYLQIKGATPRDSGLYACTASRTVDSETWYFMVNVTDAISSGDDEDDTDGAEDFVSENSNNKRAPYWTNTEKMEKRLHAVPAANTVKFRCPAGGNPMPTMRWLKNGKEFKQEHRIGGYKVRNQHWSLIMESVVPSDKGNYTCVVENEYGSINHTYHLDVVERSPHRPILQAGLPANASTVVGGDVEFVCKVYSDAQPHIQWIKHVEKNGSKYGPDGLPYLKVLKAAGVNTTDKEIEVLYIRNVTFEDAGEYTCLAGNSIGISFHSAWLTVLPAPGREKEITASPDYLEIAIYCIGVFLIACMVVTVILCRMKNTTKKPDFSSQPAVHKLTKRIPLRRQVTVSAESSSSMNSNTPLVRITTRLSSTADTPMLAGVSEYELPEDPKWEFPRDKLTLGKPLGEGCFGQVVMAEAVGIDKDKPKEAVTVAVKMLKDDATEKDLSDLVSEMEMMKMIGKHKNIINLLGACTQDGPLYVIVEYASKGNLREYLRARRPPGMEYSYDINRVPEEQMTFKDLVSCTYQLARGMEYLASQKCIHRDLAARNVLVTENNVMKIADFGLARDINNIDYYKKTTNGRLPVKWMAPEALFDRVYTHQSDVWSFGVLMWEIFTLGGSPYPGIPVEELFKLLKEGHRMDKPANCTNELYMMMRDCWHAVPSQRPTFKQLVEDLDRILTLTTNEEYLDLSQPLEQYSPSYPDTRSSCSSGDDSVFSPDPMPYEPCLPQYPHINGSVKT
Chain of ZAP70 (P43403 whole entry): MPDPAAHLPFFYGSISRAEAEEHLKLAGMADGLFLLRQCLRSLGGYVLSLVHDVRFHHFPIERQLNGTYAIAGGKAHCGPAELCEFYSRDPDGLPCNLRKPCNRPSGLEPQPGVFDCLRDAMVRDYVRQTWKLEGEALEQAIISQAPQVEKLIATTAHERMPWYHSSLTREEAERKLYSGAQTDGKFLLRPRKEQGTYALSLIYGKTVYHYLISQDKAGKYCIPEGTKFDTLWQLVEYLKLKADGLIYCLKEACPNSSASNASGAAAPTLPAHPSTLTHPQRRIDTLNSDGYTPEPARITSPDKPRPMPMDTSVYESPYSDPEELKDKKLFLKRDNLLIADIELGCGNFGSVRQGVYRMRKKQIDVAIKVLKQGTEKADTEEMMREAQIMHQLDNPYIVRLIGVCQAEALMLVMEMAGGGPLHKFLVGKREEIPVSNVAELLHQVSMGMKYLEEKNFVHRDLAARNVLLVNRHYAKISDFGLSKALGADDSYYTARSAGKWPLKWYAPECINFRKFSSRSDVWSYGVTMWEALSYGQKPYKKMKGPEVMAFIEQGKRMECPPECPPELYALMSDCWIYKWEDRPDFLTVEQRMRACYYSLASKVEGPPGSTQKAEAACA
Chain of NEK3 (P51956 whole entry): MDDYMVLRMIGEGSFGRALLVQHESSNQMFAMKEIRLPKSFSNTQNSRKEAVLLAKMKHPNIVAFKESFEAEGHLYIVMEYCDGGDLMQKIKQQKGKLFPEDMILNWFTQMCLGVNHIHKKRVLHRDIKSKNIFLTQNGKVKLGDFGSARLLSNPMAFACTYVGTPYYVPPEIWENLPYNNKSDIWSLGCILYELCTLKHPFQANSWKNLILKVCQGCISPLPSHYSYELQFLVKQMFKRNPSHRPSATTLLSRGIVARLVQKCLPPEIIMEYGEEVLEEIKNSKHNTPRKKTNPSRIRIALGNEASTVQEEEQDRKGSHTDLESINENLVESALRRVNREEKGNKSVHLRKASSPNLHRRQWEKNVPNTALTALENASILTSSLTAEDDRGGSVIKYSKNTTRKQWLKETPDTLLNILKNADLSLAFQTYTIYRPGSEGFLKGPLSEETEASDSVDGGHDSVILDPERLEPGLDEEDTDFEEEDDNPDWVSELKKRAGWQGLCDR

remaining activity at 0.3 µM (PASK): 102% | remaining activity at 0.3 µM (FGFR2; [1]): 89.2% | remaining activity at 0.3 µM (FGFR2; [2]): 87.3% | remaining activity at 0.3 µM (TLK2; [1]): 101% | remaining activity at 0.3 µM (TLK2; [2]): 100% | remaining activity at 0.3 µM (TNIK; [1]): 49.6% | remaining activity at 0.3 µM (TNIK; [2]): 48.7% | remaining activity at 0.3 µM (IKKb/IKBKB; [1]): 104% | remaining activity at 0.3 µM (IKKb/IKBKB; [2]): 102% | remaining activity at 0.3 µM (PKCmu/PRKD1; [1]): 67.7% | remaining activity at 0.3 µM (PKCmu/PRKD1; [2]): 67.3% | remaining activity at 0.3 µM (YES/YES1; [1]): 87.4% | remaining activity at 0.3 µM (YES/YES1; [2]): 85.4% | remaining activity at 0.3 µM (TAOK2/TAO1; [1]): 86% | remaining activity at 0.3 µM (TAOK2/TAO1; [2]): 84.4% | remaining activity at 0.3 µM (SIK3; [1]): 96.1% | remaining activity at 0.3 µM (SIK3; [2]): 93.9% | remaining activity at 0.3 µM (RIPK5; [1]): 108% | remaining activity at 0.3 µM (RIPK5; [2]): 101% | remaining activity at 0.3 µM (ZAP70; [1]): 95.5% | remaining activity at 0.3 µM (ZAP70; [2]): 91.3% | remaining activity at 0.3 µM (MEK5; [1]): 110% | remaining activity at 0.3 µM (MEK5; [2]): 108% | remaining activity at 0.3 µM (MEK2; [1]): 87.6% | remaining activity at 0.3 µM (MEK2; [2]): 87.4% | remaining activity at 0.3 µM (NEK3; [1]): 89% | remaining activity at 0.3 µM (NEK3; [2]): 88% | remaining activity at 0.3 µM (PKCb2; [1]): 94.4% | remaining activity at 0.3 µM (PKCb2; [2]): 93.6% | remaining activity at 0.3 µM (PKG1a; [1]): 87.6% | remaining activity at 0.3 µM (PKG1a; [2]): 85.6% | remaining activity at 0.3 µM (MSK2/RPS6KA4; [1]): 99% | remaining activity at 0.3 µM (MSK2/RPS6KA4; [2]): 95% | remaining activity at 0.3 µM (CHK1; [1]): 104% | remaining activity at 0.3 µM (CHK1; [2]): 101% | remaining activity at 0.3 µM (p70S6K/RPS6KB1; [1]): 105% | remaining activity at 0.3 µM (p70S6K/RPS6KB1; [2]): 102% | remaining activity at 0.3 µM (YSK4/MAP3K19; [1]): 93.8% | remaining activity at 0.3 µM (YSK4/MAP3K19; [2]): 92.8%
SMILES: COc1cc(N2CCN(C)CC2)c(C)cc1Nc1ncc(Br)c(Nc2cccnc2N(C)C)n1 [TP-5801]
